In experiment [1] the test system is HCC827 cells (EGFR delE746-A750). The experiment is described as follows: Cell proliferation (CellTiter Glo, 72 hr), HCC827 cells. Type of experiment: cell-based, human. As for the experimental part: (§1) A431 human epidermoid carcinoma, H1975 human NSCLC and HCC827 human NSCLC adenocarcinoma cells were obtained from the American Type Culture Center (Manassas, Va.). A431 cells were grown in DMEM (Invitrogen, Carlsbad, Calif.) supplemented with 10% FBS (HyClone, South Logan, Utah) and 1% Penicillin-Streptomycin (P/S, Lonza, Walkersville, Md.).
(§2) Cells were plated in Growth Media supplemented with 5% FBS and 1% P/S at a density of 3,000 cells per well in 96 well tissue culture plates (Corning). […] Growth inhibition (GI50) values were determined by Graph Pad Prism.
A general note: In ATP-based viability assays light output follows the ATP content of the culture.

For experiment [2], the system named is H1975 cells (EGFR L858R/T790M). The experiment is described as follows: Cell proliferation (CellTiter Glo, 72 hr), H1975 cells. It counts as cell-based, human. As for the experimental part: as §1, §2
For experiment [3], the target named is EGFR L858R/T790M (H1975 cells) (Homo sapiens (Human), UniProt P00533, L858R/T790M). Kind of experiment: Phospho-EGFR signaling immunoblot (1 hr), H1975 cells. Type of experiment: cell-based. As to conditions: WT EGFR (A431) vs H1975. How it is done: as §1
All primary antibodies were obtained from Cell Signaling (Danvers, Mass.) and used at 1:1000. Secondary antibodies were used at 1:10,000. Goat anti-mouse IgG IRDye 800CW antibody was obtained from LiCor Biosciences (Lincoln, Nebr.) and goat anti-rabbit IgG Alexa Fluor 680 was obtained from Invitrogen.
Cells were grown in 12-well plates (Corning, Coring, N.Y.) to 90% confluence and then incubated in low-serum (0.1% FBS) media for 16-18 hr. […] A431 cells were then stimulated with 50 ng/ml EGF (Peprotech, Rocky Hill, N.J.) for 15 min. After treatment, cell monolayers were washed with cold PBS (Invitrogen) and immediately lysed by scrapping into 60 uL cold Cell Extraction Buffer (Invitrogen) supplemented with Complete Protease inhibitors (Roche, Indianapolis, Ind.) and PhosphoSTOP (Roche) phosphatase inhibitors.
Phospho-protein signals were quantitated using Odyssey Infrared Imaging (Li-Cor Biosciences).
To assess phosphor-EGFR signaling, blots were probed with rabbit anti-Phospho-EGFR (Y1068) and mouse total anti-EGFR antibodies. Phospho-EGFR signal was normalized to total EGFR expression for each sample. […] Normalized data was fitted using a sigmoidal curve analysis program (Graph Pad Prism version 5) with variable Hill slope to determine the EC50 values.
(In general: In western blotting, separated proteins are transferred to a membrane and probed.)

[4] abbreviates: proliferation, WT EGFR (A431) vs HCC827.
[5] abbreviates: proliferation, WT EGFR (A431) vs H1975.

Each structure is given as a SMILES string. Like-named read-outs stand apart in the source and are kept apart here. Where only a bound is given, the exact number is not on record here.

As to `C=CC(=O)Nc1cccc(Oc2nc(Nc3ccc(N4CCN(S(N)(=O)=O)CC4)cc3OC)ncc2C(F)(F)F)c1` [Compound I-27, N-(3-(2-(2-methoxy-4-(4-sulfamoylpiperazin-1-yl)phenylamino)-5-(trifluoromethyl)pyrimidin-4-yloxy)phenyl)acrylamide], the “Ratio WT/mutant” value in experiment [1] (setting [4]) was more than 10; in experiment [2] (setting [5]) it was more than 1.
Taken in the same sequence, the figures for `C=CC(=O)Nc1cccc(Oc2nc(Nc3ccc(N4CCN(C(=O)CC(C)(C)C)CC4)cc3OC)ncc2Cl)c1` [Compound I-23, N-(3-(5-chloro-2-(4-(4-(3,3-dimethylbutanoyl)piperazin-1-yl)-2-methoxyphenylamino)pyrimidin-4-yloxy)phenyl)acrylamide] were more than 20 and more than 1.
In the case of `C=CC(=O)Nc1cccc(Oc2nc(Nc3ccc(N4CCN(S(C)(=O)=O)CC4)cc3OC)ncc2Cl)c1` [Compound I-26, N-(3-(5-chloro-2-(2-methoxy-4-(4-(methylsulfonyl)piperazin-1-yl)phenylamino)pyrimidin-4-yloxy)phenyl)acrylamide], the “Ratio WT/mutant” value in experiment [3] is listed as more than 40; in experiment [1] (setting [4]) it was more than 35; in experiment [2] (setting [5]) it was more than 1.
For `C=CC(=O)Nc1cccc(Nc2nc(Nc3ccc(N4CCN(C(C)=O)CC4)cc3OC)ncc2Cl)c1` [Compound I-8, N-(3-(2-(4-(4-acetylpiperazin-1-yl)-2-methoxyphenylamino)-5-chloropyrimidin-4-ylamino)phenyl)acrylamide], the “Ratio WT/mutant” value in experiment [3] is recorded as more than 1; in experiment [1] (setting [4]) it was more than 20; in experiment [2] (setting [5]), more than 1.
As for `C=CC(=O)Nc1cccc(Oc2nc(Nc3ccc(N4CCOCC4)cc3OC(F)F)ncc2Cl)c1` [Compound I-36, N-(3-(5-chloro-2-(2-(difluoromethoxy)-4-morpholinophenylamino)pyrimidin-4-yloxy)phenyl)acrylamide], the results for the “Ratio WT/mutant” value in experiment [1] (setting [4]) and in experiment [2] (setting [5]) were more than 50 and more than 25, respectively.
Regarding `C=CC(=O)Nc1cccc(Oc2nc(Nc3ccc(N4CCOCC4)cc3OC)ncc2Cl)c1` [Compound I-5, N-(3-(5-chloro-2-(2-methoxy-4-morpholinophenylamino)pyrimidin-4-yloxy)phenyl)acrylamide], the “Ratio WT/mutant” value is reported as more than 30 in experiment [3], more than 20 in experiment [1] (setting [4]) and more than 5 in experiment [2] (setting [5]).
`C=CC(=O)Nc1cccc(Nc2nc(Nc3ccc(N4CCN(C(=O)OC)CC4)cc3OC)ncc2C(F)(F)F)c1` [Compound I-29, methyl 4-(4-(4-(3-acrylamidophenylamino)-5-(trifluoromethyl)pyrimidin-2-ylamino)-3-methoxyphenyl)piperazine-1-carboxylate]: the “Ratio WT/mutant” value in experiment [1] (setting [4]) is on record as more than 15; in experiment [2] (setting [5]), more than 10.
In the case of `C=CC(=O)Nc1cccc(Oc2nc(Nc3ccc(N4CCN(C(=O)CO)CC4)cc3OC)ncc2C(F)(F)F)c1` [Compound I-11, N-(3-(2-(4-(4-(2-hydroxyacetyl)piperazin-1-yl)-2-methoxyphenylamino)-5-(trifluoromethyl)pyrimidin-4-yloxy)phenyl)acrylamide], the “Ratio WT/mutant” value in experiment [3] was more than 15; in experiment [1] (setting [4]), more than 45; in experiment [2] (setting [5]), more than 5.
The like results for `C=CC(=O)Nc1cccc(Nc2nc(Nc3ccc(N4CCN(C(C)=O)CC4)cc3OC(F)(F)F)ncc2C(F)(F)F)c1` [Compound I-33, N-(3-(2-(4-(4-acetylpiperazin-1-yl)-2-(trifluoromethoxy)phenylamino)-5-(trifluoromethyl)pyrimidin-4-ylamino)phenyl)acrylamide] were, in that order, more than 50, more than 15 and more than 30.
As for `C=CC(=O)Nc1cccc(Nc2nc(Nc3ccc(N4CCN(C(=O)OC(C)(C)C)[C@H](C(=O)OC)C4)cc3OC)ncc2C(F)(F)F)c1` [Compound I-50, (S)-1-tert-butyl 2-methyl 4-(4-(4-(3-acrylamidophenylamino)-5-(trifluoromethyl)pyrimidin-2-ylamino)-3-methoxyphenyl)piperazine-1,2-dicarboxylate], the results for the “Ratio WT/mutant” value in experiment [1] (setting [4]) and in experiment [2] (setting [5]) were more than 50 and more than 10, respectively.
Taken in the same sequence, the figures for `C=CC(=O)Nc1cccc(Oc2nc(Nc3ccc(N4CCCN(C(=O)OC(C)(C)C)CC4)cc3OC)ncc2C(F)(F)F)c1` [Compound I-39, tert-butyl 4-(4-(4-(3-acrylamidophenoxy)-5-(trifluoromethyl)pyrimidin-2-ylamino)-3-methoxyphenyl)-1,4-diazepane-1-carboxylate] were more than 1 and less than 1.
Taken in the same sequence, the figures for `C=CC(=O)Nc1cccc(Oc2nc(Nc3ccc(N4CCCOCC4)cc3OC)ncc2Cl)c1` [Compound I-37, N-(3-(5-chloro-2-(2-methoxy-4-(1,4-oxazepan-4-yl)phenylamino)pyrimidin-4-yloxy)phenyl)acrylamide] were more than 10 and more than 1.
With `C=CC(=O)Nc1cccc(Oc2nc(Nc3ccc(N4CCN(C(=O)OC(C)(C)C)CC4)cc3OCC)ncc2Cl)c1` [Compound I-18, tert-butyl 4-(4-(4-(3-acrylamidophenoxy)-5-chloropyrimidin-2-ylamino)-3-ethoxyphenyl)piperazine-1-carboxylate], the “Ratio WT/mutant” value is more than 5 in experiment [1] (setting [4]) and more than 1 in experiment [2] (setting [5]).
`C=CC(=O)Nc1cccc(Oc2nc(Nc3ccc(N4CCN(C(=O)OC)CC4)cc3OC)ncc2C(F)(F)F)c1` [Compound I-20, methyl 4-(4-(4-(3-acrylamidophenoxy)-5-(trifluoromethyl)pyrimidin-2-ylamino)-3-methoxyphenyl)piperazine-1-carboxylate]: the “Ratio WT/mutant” value in experiment [1] is on record as more than 15; in experiment [2], more than 5.
On to `C=CC(=O)Nc1cccc(Oc2nc(Nc3ccc(N4CCN(C(C)=O)CC4)cc3OC)ncc2C(F)(F)F)c1` [Compound I-10, N-(3-(2-(4-(4-acetylpiperazin-1-yl)-2-methoxyphenylamino)-5-(trifluoromethyl)pyrimidin-4-yloxy)phenyl)acrylamide], for which the “Ratio WT/mutant” value is more than 20 in experiment [1] (setting [4]) and more than 1 in experiment [2] (setting [5]).
On to `C=CC(=O)Nc1cccc(Nc2nc(Nc3ccc(N4CCOCC4)cc3OC)ncc2Cl)c1` [Compound I-15, N-(3-(5-chloro-2-(2-methoxy-4-morpholinophenylamino)pyrimidin-4-ylamino)phenyl)acrylamide], for which the “Ratio WT/mutant” value was more than 10 in experiment [1] (setting [4]) and more than 1 in experiment [2] (setting [5]).
On to `C=CC(=O)Nc1cccc(Nc2nc(Nc3ccc(N4CCN(C(=O)CC)CC4)cc3OC)ncc2C(F)(F)F)c1` [Compound I-35, N-(3-(2-(2-methoxy-4-(4-propionylpiperazin-1-yl)phenylamino)-5-(trifluoromethyl)pyrimidin-4-ylamino)phenyl)acrylamide], for which the “Ratio WT/mutant” value in experiment [1] (setting [4]) is more than 25; in experiment [2] (setting [5]) it was more than 10.
With `C=CC(=O)Nc1cccc(Oc2nc(Nc3ccc(N4CCOCC4)cc3OC(F)F)ncc2C(F)(F)F)c1` [Compound I-13, N-(3-(2-(2-(difluoromethoxy)-4-morpholinophenylamino)-5-(trifluoromethyl)pyrimidin-4-yloxy)phenyl)acrylamide], the “Ratio WT/mutant” value in experiment [1] (setting [4]) is given as more than 50; in experiment [2] (setting [5]), more than 10.
With `C=CC(=O)Nc1cccc(Nc2nc(Nc3ccc(N4CCCOCC4)cc3OC)ncc2C(F)(F)F)c1` [Compound I-38, N-(3-(2-(2-methoxy-4-(1,4-oxazepan-4-yl)phenylamino)-5-(trifluoromethyl)pyrimidin-4-ylamino)phenyl)acrylamide], the “Ratio WT/mutant” value in experiment [1] (setting [4]) was more than 5; in experiment [2] (setting [5]), more than 1.
As to `C=CC(=O)Nc1cccc(Oc2nc(Nc3ccc(N4CCN(C(C)=O)CC4)cc3OC)ncc2Cl)c1` [Compound I-9, N-(3-(2-(4-(4-acetylpiperazin-1-yl)-2-methoxyphenylamino)-5-chloropyrimidin-4-yloxy)phenyl)acrylamide], the “Ratio WT/mutant” value is recorded as more than 50 in experiment [1] (setting [4]) and more than 5 in experiment [2] (setting [5]).
The like results for `C=CC(=O)Nc1cccc(Nc2nc(Nc3ccc(N4CCN(C(=O)NC)CC4)cc3OC)ncc2C(F)(F)F)c1` [Compound I-28, 4-(4-(4-(3-acrylamidophenylamino)-5-(trifluoromethyl)pyrimidin-2-ylamino)-3-methoxyphenyl)-N-methylpiperazine-1-carboxamide] were, in that order, more than 50 and more than 5.
For the compound `C=CC(=O)Nc1cccc(Nc2nc(Nc3ccc(N4CCCN(C(=O)C(F)(F)F)CC4)cc3OC)ncc2C(F)(F)F)c1` [Compound I-19, N-(3-(2-(2-methoxy-4-(4-(2,2,2-trifluoroacetyl)-1,4-diazepan-1-yl)phenylamino)-5-(trifluoromethyl)pyrimidin-4-ylamino)phenyl)acrylamide], the “Ratio WT/mutant” value in experiment [1] (setting [4]) is listed as more than 10; in experiment [2] (setting [5]) it was more than 5.

The values above are taken from patent publication US11096942B2, “Heterocyclic compounds and uses thereof” (Celgene CAR LLC, priority 2010, dated 2021).
